According to patent publication US20150258101A1 (Proximagen Limited, priority 2014, published 2015):
Where a name gives a salt, the structure may show the parent alone.

Each compound was assayed against T1, purified recombinantly expressed human SSAO (Homo sapiens, UniProt Q16853) (assay: SSAO enzyme inhibition assay (benzylamine substrate; hydrogen peroxide/HRP-coupled or 14C aldehyde detection)). Conditions: SSAO inhibitory activity, RT.
T1 construct: made in house
T1 sequence (Q16853 1-763): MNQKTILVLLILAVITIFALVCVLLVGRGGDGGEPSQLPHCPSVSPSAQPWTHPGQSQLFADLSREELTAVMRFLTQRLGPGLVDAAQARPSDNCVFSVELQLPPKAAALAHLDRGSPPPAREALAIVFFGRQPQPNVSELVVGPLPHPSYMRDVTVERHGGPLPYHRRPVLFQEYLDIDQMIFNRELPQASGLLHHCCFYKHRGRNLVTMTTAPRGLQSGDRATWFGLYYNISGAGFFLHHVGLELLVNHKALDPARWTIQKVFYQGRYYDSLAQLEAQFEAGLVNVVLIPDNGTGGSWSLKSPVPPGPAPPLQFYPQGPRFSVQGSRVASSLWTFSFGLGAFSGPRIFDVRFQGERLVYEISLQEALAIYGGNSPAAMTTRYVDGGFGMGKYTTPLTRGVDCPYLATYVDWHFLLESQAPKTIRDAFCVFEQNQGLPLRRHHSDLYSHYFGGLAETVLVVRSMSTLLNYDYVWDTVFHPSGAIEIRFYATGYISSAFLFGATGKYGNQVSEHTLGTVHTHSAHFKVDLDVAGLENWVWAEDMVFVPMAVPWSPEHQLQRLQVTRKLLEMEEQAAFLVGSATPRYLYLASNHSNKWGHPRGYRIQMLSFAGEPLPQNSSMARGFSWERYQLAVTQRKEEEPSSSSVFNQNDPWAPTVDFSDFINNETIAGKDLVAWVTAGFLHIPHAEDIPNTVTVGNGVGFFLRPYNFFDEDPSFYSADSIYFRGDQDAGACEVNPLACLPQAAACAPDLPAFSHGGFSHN
Type: biochemical
Procedure: All primary assays were performed at RT. with purified recombinantly expressed human SSAO. Enzyme was prepared essentially as described in Öhman et al. (Protein Expression and Purification 46 (2006) 321-331). In addition, secondary- and selectivity assays were performed using SSAO prepared from various tissues or purified rat recombinant SSAO. The enzyme activity was assayed with benzylamine as substrate by measuring either benzaldehyde production, using ^14C-labeled substrate, or by utilizing the production of hydrogen peroxide in a horseradish peroxidase (HRP) coupled reaction. Briefly, test compounds were dissolved in dimethyl sulfoxide (DMSO) to a concentration of 10 mM. Dose-response measurements were assayed by either creating 1:10 serial dilutions in DMSO to produce a 7 point curve or by making 1:3 serial dilutions in DMSO to produce 11 point curves.
In a horseradish peroxidase (HRP) coupled reaction, hydrogen peroxide oxidation of 10-acetyl-3,7-dihydroxyphenoxazine produced resorufin, which is a highly fluorescent compound (Zhout and Panchuk-Voloshina. Analytical Biochemistry 253 (1997) 169-174; Amplex® Red Hydrogen Peroxide/peroxidase Assay kit, Invitrogen A22188). Enzyme and compounds in 50 mM sodium phosphate, pH 7.4 were set to pre-incubate in flat-bottomed microtiter plates for approximately 15 min before initiating the reaction by addition of a mixture of HRP, benzylamine and Amplex reagent. Benzylamine concentration was fixed at a concentration corresponding to the Michaelis constant, determined using standard procedures. Fluorescence intensity was then measured at several time points during 1-2 h, exciting at 544 nm and reading the emission at 590 nm. For the human SSAO assay final concentrations of the reagents in the assay wells were: SSAO enzyme 1 ug/ml, benzylamine 100 uM, Amplex reagent 20 uM, HRP 0.1 U/mL and varying concentrations of test compound. The inhibition was measured as % decrease of the signal compared to a control without inhibitor (only diluted DMSO). The background signal from a sample containing no SSAO enzyme was subtracted from all data points. Data was fitted to a four parameter logistic model and IC50 values were calculated using the Graph Pad Prism 4 or XLfit 4 programs.
SSAO activity was assayed using 14C-labeled benzylamine and analysed by measuring radioactive benzaldehyde. In a white 96-well optiplate (Packard), 20 uL of diluted test compound was pre-incubated at room temperature with 20 uL SSAO enzyme for approximately 15 min with continuous agitation. All dilutions were made with PBS. The reaction was initiated by adding 20 uL of the benzylamine substrate solution containing [7-14C] Benzylamine hydrochloride (CFA589, GE Healthcare). The plate was incubated for 1 h as above after which the reaction was stopped by acidification (10 uL 1M aq HCl). Then 90 uL Micro Scint-E solution (Perkin-Elmer) was added to each well and the plate was continuously mixed for 15 min. Phase separation occurred instantly and activity was read in a Topcount scintillation counter (Perkin-Elmer). In the final reaction well, the human recombinant SSAO concentration was 10 ug/ml. In order to optimize sensitivity, the substrate concentration was decreased as compared to the HRP coupled assay in order to get a higher fraction of radioactive product. In the human SSAO assay, benzylamine concentration was 40 uM (0.2 uCi/mL). Data was analysed as above.
Clc1ccc(-n2c(-c3cccnc3)nc3ccncc32)cc1 [Example 1, 3-[3-(4-Chlorophenyl)-3H-imidazo[4,5-c]pyridin-2-yl]pyridine] gave an IC50 of 200 to 1200 nM. Compound Clc1ccc(-n2c(-c3cnc(N4CCOCC4)cn3)nc3ccncc32)cc1 [Example 5, 4-{5-[3-(4-Chlorophenyl)-3H-imidazo[4,5-c]pyridin-2-yl]pyrazin-2-yl}morpholine] has an IC50 of 50 to 200 nM. For O=C(c1ccc(-c2nc3ccncc3n2-c2ccc(Cl)cc2)cn1)N1CCOCC1 [Example 6, 4-({5-[3-(4-Chlorophenyl)-3H-imidazo[4,5-c]pyridin-2-yl]pyridin-2-yl}carbonyl) morpholine], the IC50 was 200 to 1200 nM. Clc1ccc(-n2c(-c3cnc(NC4CCOCC4)cn3)nc3ccncc32)cc1 [Example 7, 5-[3-(4-Chlorophenyl)-3H-imidazo[4,5-c]pyridin-2-yl]-N-(oxan-4-yl)pyrazin-2-amine] showed an IC50 of 50 to 200 nM. With NC1CCN(c2ccc(-c3nc4ccncc4n3-c3ccc(Cl)cc3)cn2)CC1 [Example 8, 1-{5-[3-(4-Chlorophenyl)-3H-imidazo[4,5-c]pyridin-2-yl]pyridin-2-yl}piperidin-4-amine] the IC50 was < 50 nM. With Fc1ccc(-n2c(-c3cnc(NCC4CC4)nc3)nc3ccncc32)cc1 [Example 9, N-(Cyclopropylmethyl)-5-[3-(4-fluorophenyl)-3H-imidazo [4,5-c]pyridin-2-yl]pyrimidin-2-amine] the IC50 was < 50 nM. Work on Fc1ccc(-n2c(-c3cnc(NC4CC4)nc3)nc3ccncc32)cc1 [Example 10, N-Cyclopropyl-5-[3-(4-fluorophenyl)-3H-imidazo [4,5-c]pyridin-2-yl]pyrimidin-2-amine] yielded an IC50 of 50 to 200 nM. O=C(NC1CC1)c1ccc(-c2nc3ccncc3n2-c2ccc(Cl)cc2)cn1 [Example 14, 5-[3-(4-Chlorophenyl)-3H-imidazo[4,5-c]pyridin-2-yl]-N-cyclopropylpyridine-2-carboxamide] showed an IC50 of 200 to 1200 nM. Compound Fc1ccc(-n2c(-c3ccc(C4CCOCC4)nn3)nc3ccncc32)cc1 [Example 15, 3-[3-(4-Fluorophenyl)-3H-imidazo[4,5-c]pyridin-2-yl]-6-(oxan-4-yl)pyridazine] has an IC50 of 50 to 200 nM. In the case of CS(=O)(=O)Nc1ccc(-c2nc3ccncc3n2-c2ccc(Cl)cc2)cn1 [Example 16, N-{5-[3-(4-Chlorophenyl)-3H-imidazo[4,5-c]pyridin-2-yl]pyridin-2-yl} methanesulfonamide], the IC50 is reported as 200 to 1200 nM. Clc1ccc(-n2c(-c3csc(N4CCNCC4)n3)nc3ccncc32)cc1 [Example 17, 1-{4-[3-(4-Chlorophenyl)-3H-imidazo[4,5-c]pyridin-2-yl]-1,3-thiazol-2-yl}piperazine dihydrochloride] gave an IC50 of 200 to 1200 nM. Clc1ccc(-n2c(-c3cnc(N4CCNCC4)s3)nc3ccncc32)cc1 [Example 19, 1-{5-[3-(4-Chlorophenyl)-3H-imidazo[4,5-c]pyridin-2-yl]-1,3-thiazol-2-yl}piperazine] gave an IC50 of 50 to 200 nM. For Cc1cc(N2CCOCC2)ncc1-c1nc2ccncc2n1-c1ccc(Cl)cc1F [Example 22, 4-{5-[3-(4-Chloro-2-fluorophenyl)-3H-imidazo [4,5-c]pyridin-2-yl]-4-methylpyridin-2-yl}morpholine], the IC50 was < 50 nM. With Fc1ccc(-n2c(-c3cnc(N4CCCOCC4)nc3)nc3ccncc32)cc1 [Example 25, 4-{5-[3-(4-Fluorophenyl)-3H-imidazo[4,5-c]pyridin-2-yl]pyrimidin-2-yl}-1,4-oxazepane] the IC50 was < 50 nM. Cc1nc(N2CCOCC2)ncc1-c1nc2ccncc2n1-c1ccc(F)cc1 [Example 26, 4-{5-[3-(4-Fluorophenyl)-3H-imidazo[4,5-c]pyridin-2-yl]-4-methylpyrimidin-2-yl} morpholine] gave an IC50 of 50 to 200 nM. With Cc1nc(N2CCOCC2)ncc1-c1nc2ccncc2n1-c1ccc(Cl)cc1F [Example 27, 4-{5-[3-(4-Chloro-2-fluorophenyl)-3H-imidazo [4,5-c]pyridin-2-yl]-4-methylpyrimidin-2-yl} morpholine] the IC50 was < 50 nM. For COc1nc(N2CCOCC2)ccc1-c1nc2ccncc2n1-c1ccc(F)cc1 [Example 28, 4-{5-[3-(4-Fluorophenyl)-3H-imidazo[4,5-c]pyridin-2-yl]-6-methoxypyridin-2-yl} morpholine], the IC50 was 50 to 200 nM. With Cc1cc(N2CCOCC2)nc(C)c1-c1nc2ccncc2n1-c1ccc(F)cc1 [Example 29, 4-{5-[3-(4-Fluorophenyl)-3H-imidazo[4,5-c]pyridin-2-yl]-4,6-dimethylpyridin-2-yl} morpholine] the IC50 was 200 to 1200 nM. For Fc1ccc(-n2c(-c3cnc(C4CC4)nc3)nc3ccncc32)cc1 [Example 30, 2-Cyclopropyl-5-[3-(4-fluorophenyl)-3H-imidazo [4,5-c]pyridin-2-yl]pyrimidine], the IC50 was 200 to 1200 nM. Nc1ncc(-c2nc3ccncc3n2-c2ccc(Cl)cc2)cn1 [Example 31, 5-[3-(4-Chlorophenyl)-3H-imidazo[4,5-c]pyridin-2-yl] pyrimidin-2-amine] was tested, and the IC50 was 200 to 1200 nM. With Cn1ccc(-c2nc3ccncc3n2-c2ccc(Cl)cc2)cc1=O [Example 32, 4-[3-(4-Chlorophenyl)-3H-imidazo[4,5-c]pyridin-2-yl]-1-methyl-1,2-dihydropyridin-2-one] the IC50 was < 50 nM. Cn1cc(-c2nc3ccncc3n2-c2ccc(Cl)cc2)ccc1=O [Example 33, 5-[3-(4-Chlorophenyl)-3H-imidazo[4,5-c]pyridin-2-yl]-1-methyl-1,2-dihydropyridin-2-one] gave an IC50 of 200 to 1200 nM. For O=c1cc(-c2nc3ccncc3n2-c2ccc(Cl)cc2F)cc[nH]1 [Example 34, 4-[3-(4-Chloro-2-fluorophenyl)-3H-imidazo[4,5-c]pyridin-2-yl]-1,2-dihydropyridin-2-one], the IC50 was 50 to 200 nM. O=c1ccc(-c2nc3ccncc3n2-c2ccc(Cl)cc2F)c[nH]1 [Example 35, 5-[3-(4-Chloro-2-fluorophenyl)-3H-imidazo[4,5-c]pyridin-2-yl]-1,2-dihydropyridin-2-one] showed an IC50 of 200 to 1200 nM. For Cc1ccc(-n2c(-c3cnc(N4C[C@@H](C)O[C@@H](C)C4)nc3)nc3ccncc32)nc1 [Example 36, (2R,6S)-2,6-Dimethyl-4-{5-[3-(5-methylpyridin-2-yl)-3H-imidazo[4,5-c]pyridin-2-yl]pyrimidin-2-yl}morpholine], the IC50 was 50 to 200 nM. With COCCCNc1ncc(-c2nc3ccncc3n2-c2ccc(C)cc2)cn1 [Example 37, N-(3-Methoxypropyl)-5-[3-(4-methylphenyl)-3H-imidazo [4,5-c]pyridin-2-yl]pyrimidin-2-amine] the IC50 was < 50 nM. Work on CC(C)OCCNc1ncc(-c2nc3ccncc3n2-c2ccc(F)cc2)cn1 [Example 38, 5-[3-(4-Fluorophenyl)-3H-imidazo[4,5-c]pyridin-2-yl]-N-[2-(propan-2-yloxy)ethyl] pyrimidin-2-amine] yielded an IC50 of 50 to 200 nM. With Cc1ccc(-n2c(-c3cnc(NCCOC(C)C)nc3)nc3ccncc32)cc1 [Example 39, 5-[3-(4-Methylphenyl)-3H-imidazo[4,5-c]pyridin-2-yl]-N-[2-(propan-2-yloxy)ethyl] pyrimidin-2-amine] the IC50 was < 50 nM.
